{"source": "patent US20180179476A1", "about": "“SOLVENT COMPOSITIONS FOR USE AS HEPTANE REPLACEMENTS” (TBF ENVIRONMENTAL TECHNOLOGY INC., priority 2015, published 2018)", "origin": "cited, not measured here", "data": [{"smiles": "COC(C)=O", "note": "[Methyl acetate]", "values": [{"measurement": "stability", "setting": "in the presence of strong aqueous bases or aqueous acids", "value": "not stable"}, {"measurement": "solubility in water", "setting": "room temperature", "value": 25, "unit": "%"}]}]}
